According to patent US20110256121A1, “METHODS AND KITS FOR DIAGNOSING OR MONITORING AUTOIMMUNE AND CHRONIC INFLAMMATORY DISEASES” (THE REGENTS OF THE UNIVERSITY OF MICHIGAN, priority 2008, published 2011):

Tests used:
Assay type in all cases: cell-based, human
KIR2DL2 = KIR2DL2 expression on T cells by flow cytometry
Method: (§1) T cell purification and culture. Peripheral blood mononuclear cells (PBMC) were isolated from healthy donors by density gradient centrifugation, stimulated for 18 hours with 1 μg/mlphytohemagglutinin (PHA) (Murex, Norcross, Ga.), then treated or not with 5 μm 5-azacytidine (5-azaC, Sigma, St. Louis, Mo.) for 72 hours as described (6). Total T cells, CD4^+ T cells or CD8′ T cells then were purified using the pan T cell isolation kit II or the CD4^+ and CD8^+ T cell isolation kit II from Miltenyi (Auburn, Calif.). T cells were typically >94% CD3^+ by flow cytometry. Jurkat cells (E6-1) were maintained in culture as described (11). This protocol was approved by the University of Michigan Institutional Review Board.
Flow Cytometric Analysis. The following monoclonal antibodies were used: CYC-anti-CD3, FITC-anti-CD8, CYC-anti-CD4, FITC-anti-CD28, CYC-mouse IgG1 and FITC-mouse-IgG1 (all from BD PharMingen, San Diego, Calif.). Anti-CD158b1/b2, j-PE (GL183, reactive with KIR 2DL2/2DL3/2DS2) was obtained from Beckman Coulter Immunotech (Buckinghamshire, UK), anti-CD158d-PE (anti-KIR2DL4) from R&D Systems (Minneapolis, Minn.), and PE-mouse-IgG2A from Abcam (Cambridge Mass.). Cell staining and fixation were performed as described (2; 6), and cells analyzed using a FACSCalibur flow cytometer (BD Biosciences, Franklin Lakes, N.J.).
Confirmation at the protein and mRNA levels. The effect of 5-azaC on KIR2DL2 and KIR2DL4 was confirmed in CD4+ and CD8+ T cells at the protein and mRNA levels. […] 5-azaC induces KIR2DL2 expression on both subsets, but a greater increase is seen on the CD8+ subset. FIG. 25b summarizes the effect of 5-azaC on KIR2DL2 expression in CD4+ and CD8+ T cells from healthy subjects. […] Since KIR is primarily expressed on CD28− T cells (24), KIR2DL2 expression was compared on CD28+ and CD28− T cells with and without 5-azaC treatment. KIR2DL2 expression increased on the CD28+ subset relative to untreated cells (1.9±0.2% vs 0.1±0.1%, 5-azaC treated vs untreated, n=3, p<0.001), but not on the CD28− subset (0.27±0.13% vs 0.30±0.18%, treated vs untreated, n=3).

KIR2DL2 promoter = KIR2DL2 promoter methylation, bisulfite sequencing and MS-PCR
Method: Bisulfite conversion and DNA sequencing. Genomic DNA was isolated from T cells using FlexiGene DNA Kits (QIAGEN) then treated with sodium bisulfite as described (15). HotStar Taq (QIAGEN) was used for amplification with the following conditions: initial incubation 95° C. 15 min, then 45 cycles 95° C. 30 s, 52° C. 30 s and 72° C. 30 s. PCR products were purified using QIAEXII Gel Extraction Kits (QIAGEN), and cloned using the pGEM-T Easy Vector System (Promega, Madison, Wis.). 10 cloned fragments were sequenced for each sample by the University of Michigan Sequencing Core.
Real-time quantitative methylation specific PCR (MSP). Three real-time MSP assays were developed for detection and quantitation of each KIR gene: one specific for the bisulfite-converted methylated sequence, one for the bisulfite-converted unmethylated sequence, and a loading control comprising primers to an adjacent bisulfite-converted sequence lacking CG pairs. MSP reactions were performed using QuantiTect SYBR Green PCR kits (QIAGEN) according to the manufacture's protocol using […] of each primer, 100 ng converted DNA and the Rotor-Gene 3000. […] Levels of amplified methylated and unmethylated fragments were standardized to the control fragment, and the methylation index calculated as […]

T cell gene expression = experiment: Microarray detection of KIR expression in 5-azaC treated T cells
Method: as §1
Microarray analysis. RNA from 5-azaC treated and untreated T cells was analyzed with HG-U133A arrays (Affymetrix, Santa Clara Calif.), containing 22283 probe-sets representing ˜13000 distinct genes, as described (6). Probe-set intensities were obtained and normalized as described (12). Two-sample T-tests were used to compare groups, and fold-changes were determined using the ratio of the group means, after replacing means of less than 50 with 50. The array data are available from NCBI's Gene Expression Omnibus using series accession number GSE6008.
Microarray detection of KIR expression in 5-azaC treated T cells. Effects of DNA methylation inhibition on T cell gene expression were tested by stimulating PBMC from healthy donors with PHA, treating with 5-azaC, and comparing gene expression patterns in treated and untreated T cells with microarrays. 682 probe-sets were obtained giving p<0.01, out of a total of 22283 probe-sets, so that approximately 223 of the 682 probe-sets were expected to be false-positives. Further demanding at least a 1.5 fold difference in the means of treated and untreated groups reduced the list to 250 probe-sets, 6 of which were KIR genes (KIR2DL1 5.7 fold p=0.003, KIR3DL1 5.7 fold p=0.001, KIR2DL2 4.2 fold p=0.0005, KIR2DS4 2.8 fold p=0.009, KIR2DL3 2.3 fold p=0.004, and KIR2DL4 1.7 fold p=0.008), out of a total of 12 KIR genes on the array, indicating enrichment of this gene family (FIG. 24).

With Nc1ncn([C@@H]2O[C@H](CO)[C@@H](O)[C@H]2O)c(=O)n1 [5-azaC, 5-azacytidine] the “KIR2DL2 expression on CD4+ and CD8+ T cells” value (KIR2DL2; 5-azaC 72 h, p<0.001 for each subset) was “increases KIR2DL2 expression on both”, the “CD4 or CD8 expression” value (KIR2DL2; 5-azaC treated T cells) was “no significant effect” and the “KIR2DL2 expression on the CD28+ subset” value (KIR2DL2; 5-azaC treated, untreated 0.1±0.1%, n=3, p<0.001) was 1.9±0.2%. The “KIR2DL2 expression on the CD28− subset” value (KIR2DL2; 5-azaC treated, untreated 0.30±0.18%, n=3) was 0.27±0.13%, the “KIR2DL2 promoter methylation pattern, bisulfite sequencing” value (KIR2DL2 promoter; CD4+ and CD8+ cells, 5-azaC treated vs untreated) was “generalized demethylation throughout the region” and the “KIR2DL2 promoter methylation index, MS-PCR” value (KIR2DL2 promoter; CD4+ and CD8+ subsets, p<0.001) was “demethylates these regions in all 5 subjects”. For the same compound, the “KIR2DL2 expression, treated vs untreated” value (T cell gene expression; PHA-stimulated, p=0.0005) was 4.2 fold, the “KIR3DL1 expression, treated vs untreated” value (T cell gene expression; PHA-stimulated, p=0.001) was 5.7 fold and the “KIR2DL1 expression, treated vs untreated” value (T cell gene expression; PHA-stimulated, p=0.003) was 5.7 fold. For the same compound, the “KIR2DL3 expression, treated vs untreated” value (T cell gene expression; PHA-stimulated, p=0.004) was 2.3 fold, the “KIR2DL4 expression, treated vs untreated” value (T cell gene expression; PHA-stimulated, p=0.008) was 1.7 fold and the “KIR2DS4 expression, treated vs untreated” value (T cell gene expression; PHA-stimulated, p=0.009) was 2.8 fold. For the same compound, the KIR2DS1 expression increase (T cell gene expression; not statistically significant) was greater than 1.5 fold, the KIR2DS3 expression increase (T cell gene expression; not statistically significant) was greater than 1.5 fold and the KIR3DL2 expression increase (T cell gene expression; not statistically significant) was greater than 1.5 fold.
